Experiments:
Conditions in all cases: average of at least two experiments
dopamine D3 receptor = dopamine D3 receptor (Homo sapiens (Human), UniProt P35462); assay: Secondary radioligand binding assay, D3; parameters: key to Ki D3: “—” indicates that a binding interaction was not detected
Protocol: (§1) 1. Secondary Radioligand Binding Assays
(§2) The detailed experimental protocols for the radioligand and functional receptor assays are available on the NIMH PDSP website at http://pdsp.med.unc.edu/UNC-CH %20Protocol %20Book.pdf.
(§3) Radioligand is diluted to five times the assay concentration (see Table 18) in Standard Binding Buffer. Typically, the assay concentration of radioligand is a value between one half the KD and the KD of a particular radioligand at its target. 50 μl aliquots of radioligand are dispensed into the wells of a 96-well plate containing 100 μl of Standard Binding Buffer. Then, duplicate 50 μl aliquots of the test and reference compound dilutions are added.
(§4) The 250 μl reactions are incubated at room temperature and shielded from light (to prevent photolysis of light-sensitive ligands) for 1.5 hours, then harvested by rapid filtration onto Whatman GF/B glass fiber filters pre-soaked with 0.3% polyethyleneimine using a 96-well Brandel harverster. Four rapid 500 μl washes are performed with chilled Standard Binding Buffer to reduce non-specific binding. Filters are placed in 6 ml scintillation tubes and allowed to dry overnight. The next day, 4 ml of EcoScint scintillation cocktail (National Diagnostics) are added to each tube. The tubes are capped, labeled, and counted by liquid scintillation counting. […] The filter mats are dried, then scintillant is melted onto the filters and the radioactivity retained on the filters is counted in a Microbeta scintillation counter.
(§5) Raw data (dpm) representing total radioligand binding (i.e. specific+non-specific binding) are plotted as a function of the logarithm of the molar concentration of the competitor (i.e. test or reference compound).
(§6) B. Dopamine Receptors: D1, D2, D3, D4, D5 Assay Buffers: Dopamine Binding Buffer (50 mM NaCl, 50 mM HEPES-HCl, 5 mM MgCl2, 0.5 mM EDTA, pH 7.4) Membrane Fraction Source: Transiently or stably transfected cell lines (e.g. HEK293, COS, CHO, NIH3T3)
(§7) The method is carried out in the manner described for the serotonin receptor assay above. Eleven dilutions (5× assay concentration) of the test and reference (see Table 19) compounds are prepared in Dopamine Binding Buffer by serial dilution, as previously described. Radioligand is diluted to five times the assay concentration (see Table 20) in Dopamine Binding Buffer.

5HT1e receptor = 5HT1e receptor (Homo sapiens (Human), UniProt P28566); assay: Secondary radioligand binding assay, 5HT1e; parameters: key: “—” indicates that a binding interaction was not detected;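 further: competition binding against a radioligand on membranes from transfected cell lines, 1.5 h at room temperature, bound radioactivity counted by liquid scintillation after filtration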
5HT3 receptor = 5HT3 receptor (Homo sapiens (Human), UniProt P46098); assay: Secondary radioligand binding assay, 5HT3; parameters: key: “—” indicates that a binding interaction was not detected;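 further: radioligand competition binding on membranes from transfected cell lines, 1.5 h incubation at room temperature, filter-retained radioactivity measured by liquid scintillation counting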
5HT7 receptor = 5HT7 receptor (Homo sapiens (Human), UniProt P34969); assay: Secondary radioligand binding assay, 5HT7; parameters: key to Ki 5HT7: “—” indicates that a binding interaction was not detected;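 further: competition of test compound with radioligand for binding to membranes from transfected cell lines, 1.5 h incubation at room temperature, filter-bound radioactivity read by liquid scintillation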
dopamine D2 receptor = dopamine D2 receptor (Homo sapiens (Human), UniProt P14416); assay: Secondary radioligand binding assay, D2; parameters: key to Ki D2: “—” indicates that a binding interaction was not detected
Protocol: as §1, §2, §3, §4, §5, §6, §7

[1] = target: Alpha1B adrenergic receptor (Homo sapiens (Human), UniProt P35368); assay: Secondary radioligand binding assay, Alpha1B; parameters: key to Ki Alpha1B: “—” indicates that a binding interaction was not detected
Description: (§8) 1. Secondary Radioligand Binding Assays The detailed experimental protocols for the radioligand and functional receptor assays are available on the NIMH PDSP website at http://pdsp.med.unc.edu/UNC-CH %20Protocol %20Book.pdf. Raw data (dpm) representing total radioligand binding (i.e. specific+non-specific binding) are plotted as a function of the logarithm of the molar concentration of the competitor (i.e. test or reference compound). […] C. Adrenergic Receptors: α1A, α1B, α2A, α2B, α2C, β1, β2, β3 Assay Buffers: For α1 receptors, α1 Binding Buffer (20 mM Tris-HCl, 145 mM NaCl, pH 7.4); for α2 receptors, α2 Binding Buffer (50 mM Tris-HCl, 5 mM MgCl2, pH 7.7); for β receptors, β Binding Buffer (50 mM Tris-HCl, 3 mM MnCl2, pH 7.7) Membrane Fraction Source: Transiently or stably transfected cell lines (e.g. HEK293, COS, CHO, NIH3T3) Protocol adapted from Arango et al. […] (1990), Gen. Psychiatry, 47: 1038-1047. The method is carried out in the manner described for the serotonin receptor assay above, except where described below. Eleven dilutions (5× assay concentration) of the test and reference (see Table 20) compounds are prepared in the appropriate buffer by serial dilution, as previously described. Radioligand is diluted to five times the assay concentration (see Table 21) in the appropriate buffer. […] Four rapid 500-μl washes are performed with chilled distilled water (for α1 and β receptors) or 0.1% polyethyleneimine (for α2 receptors) to reduce non-specific binding. Filters are placed in 6 ml scintillation tubes and allowed to dry overnight and the samples are treated to obtain data as described above. [table]

5HT2b receptor = 5HT2b receptor (Homo sapiens (Human), UniProt P41595); assay: Secondary radioligand binding assay, 5HT2b; parameters: key to Ki 5HT2b: “—” indicates that a binding interaction was not detected;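 further: competition binding against a radioligand on membranes from transfected cell lines, 1.5 h incubation at room temperature, filter-retained radioactivity counted by liquid scintillation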
[2] = target: Alpha1A adrenergic receptor (Homo sapiens (Human), UniProt P35348); assay: Secondary radioligand binding assay, Alpha1A; parameters: key to Ki Alpha1A: “—” indicates that a binding interaction was not detected
Description: as §8

5HT6 receptor = 5HT6 receptor (Homo sapiens (Human), UniProt P50406); assay: Secondary radioligand binding assay, 5HT6; parameters: key: “—” indicates that a binding interaction was not detected;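 further: competition displacement of radioligand from membranes of transfected cell lines expressing the receptor, 1.5 h at room temperature, bound radioactivity counted by scintillation after filtration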
dopamine D1 receptor = dopamine D1 receptor (Homo sapiens (Human), UniProt P21728); assay: Secondary radioligand binding assay, D1; parameters: key to Ki D1: “—” indicates that a binding interaction was not detected
Protocol: as §1, §2, §3, §4, §5, §6, §7

dopamine D5 receptor = dopamine D5 receptor (Homo sapiens (Human), UniProt P21918); assay: Secondary radioligand binding assay, D5; parameters: key to Ki D5: “—” indicates that a binding interaction was not detected
Protocol: as §1, §2, §3, §4, §5, §6, §7

Sequence of 5HT2b receptor (P41595 whole entry): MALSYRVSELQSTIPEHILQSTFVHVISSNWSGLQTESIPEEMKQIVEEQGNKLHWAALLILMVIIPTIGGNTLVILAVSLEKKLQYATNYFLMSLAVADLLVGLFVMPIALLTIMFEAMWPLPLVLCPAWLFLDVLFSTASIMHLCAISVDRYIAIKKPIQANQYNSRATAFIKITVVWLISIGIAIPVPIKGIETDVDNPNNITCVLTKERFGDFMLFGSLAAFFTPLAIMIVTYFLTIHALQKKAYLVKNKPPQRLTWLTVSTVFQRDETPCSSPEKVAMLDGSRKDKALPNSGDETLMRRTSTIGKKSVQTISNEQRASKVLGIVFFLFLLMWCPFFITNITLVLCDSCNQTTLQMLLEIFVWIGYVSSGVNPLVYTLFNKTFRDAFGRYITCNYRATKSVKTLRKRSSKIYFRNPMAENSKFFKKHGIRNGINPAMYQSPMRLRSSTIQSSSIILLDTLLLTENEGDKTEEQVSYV
Sequence of dopamine D2 receptor (P14416 whole entry, species assumed): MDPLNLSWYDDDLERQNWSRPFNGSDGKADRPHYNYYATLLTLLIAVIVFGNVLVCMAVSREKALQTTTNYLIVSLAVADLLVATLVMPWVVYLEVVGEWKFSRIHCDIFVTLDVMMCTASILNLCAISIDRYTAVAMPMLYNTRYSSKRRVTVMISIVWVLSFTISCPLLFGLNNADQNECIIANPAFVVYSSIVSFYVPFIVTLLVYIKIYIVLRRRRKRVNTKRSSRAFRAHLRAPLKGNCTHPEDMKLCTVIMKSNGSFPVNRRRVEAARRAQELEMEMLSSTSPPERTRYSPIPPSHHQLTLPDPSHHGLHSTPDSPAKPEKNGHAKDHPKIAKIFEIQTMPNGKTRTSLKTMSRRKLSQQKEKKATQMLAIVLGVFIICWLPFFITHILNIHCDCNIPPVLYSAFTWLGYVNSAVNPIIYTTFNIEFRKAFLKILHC
Sequence of 5HT6 receptor (P50406 whole entry): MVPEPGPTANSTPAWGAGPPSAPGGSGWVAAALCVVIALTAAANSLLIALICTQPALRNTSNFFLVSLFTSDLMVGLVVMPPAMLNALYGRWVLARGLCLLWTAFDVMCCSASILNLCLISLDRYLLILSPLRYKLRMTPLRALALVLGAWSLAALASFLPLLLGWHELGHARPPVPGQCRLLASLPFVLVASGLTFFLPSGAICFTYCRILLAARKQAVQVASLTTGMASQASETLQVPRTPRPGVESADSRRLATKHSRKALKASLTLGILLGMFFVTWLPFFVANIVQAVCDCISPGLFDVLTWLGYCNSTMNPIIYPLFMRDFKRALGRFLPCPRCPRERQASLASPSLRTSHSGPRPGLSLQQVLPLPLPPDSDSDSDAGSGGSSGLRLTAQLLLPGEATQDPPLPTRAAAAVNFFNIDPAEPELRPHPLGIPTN
Sequence of Alpha1A adrenergic receptor (P35348 whole entry): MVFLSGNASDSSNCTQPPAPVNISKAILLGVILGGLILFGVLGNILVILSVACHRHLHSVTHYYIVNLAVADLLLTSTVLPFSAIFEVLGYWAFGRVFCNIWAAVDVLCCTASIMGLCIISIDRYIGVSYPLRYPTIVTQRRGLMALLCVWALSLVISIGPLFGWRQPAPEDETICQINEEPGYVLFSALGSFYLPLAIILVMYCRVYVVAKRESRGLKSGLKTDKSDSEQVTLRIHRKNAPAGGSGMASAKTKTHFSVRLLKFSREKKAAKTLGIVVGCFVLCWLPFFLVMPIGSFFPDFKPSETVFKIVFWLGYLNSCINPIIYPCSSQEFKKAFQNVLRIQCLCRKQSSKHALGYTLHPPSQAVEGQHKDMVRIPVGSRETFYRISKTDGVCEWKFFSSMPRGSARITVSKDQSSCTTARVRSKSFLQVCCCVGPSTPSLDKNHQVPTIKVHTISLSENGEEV
Sequence of dopamine D3 receptor (P35462 whole entry, species assumed): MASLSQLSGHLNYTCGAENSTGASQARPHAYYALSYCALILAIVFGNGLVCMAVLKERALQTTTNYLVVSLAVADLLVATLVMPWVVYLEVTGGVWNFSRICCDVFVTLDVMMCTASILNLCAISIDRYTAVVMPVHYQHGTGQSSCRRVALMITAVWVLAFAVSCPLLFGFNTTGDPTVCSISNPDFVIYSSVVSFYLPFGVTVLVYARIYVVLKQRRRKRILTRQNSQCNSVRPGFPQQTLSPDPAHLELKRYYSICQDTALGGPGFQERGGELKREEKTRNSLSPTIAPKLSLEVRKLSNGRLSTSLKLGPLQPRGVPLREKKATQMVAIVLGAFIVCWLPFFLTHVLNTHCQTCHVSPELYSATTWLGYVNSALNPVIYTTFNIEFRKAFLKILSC
Sequence of 5HT1e receptor (P28566 whole entry): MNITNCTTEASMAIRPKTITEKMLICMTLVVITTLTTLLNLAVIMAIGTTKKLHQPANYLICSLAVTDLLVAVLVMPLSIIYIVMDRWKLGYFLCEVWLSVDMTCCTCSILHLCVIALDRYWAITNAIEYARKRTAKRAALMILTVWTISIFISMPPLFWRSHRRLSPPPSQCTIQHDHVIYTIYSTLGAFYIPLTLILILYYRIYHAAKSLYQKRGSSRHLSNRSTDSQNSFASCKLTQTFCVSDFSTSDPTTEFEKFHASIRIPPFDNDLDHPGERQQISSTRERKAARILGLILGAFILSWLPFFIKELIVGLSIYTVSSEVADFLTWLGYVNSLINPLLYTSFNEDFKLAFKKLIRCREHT
Sequence of dopamine D1 receptor (P21728 whole entry): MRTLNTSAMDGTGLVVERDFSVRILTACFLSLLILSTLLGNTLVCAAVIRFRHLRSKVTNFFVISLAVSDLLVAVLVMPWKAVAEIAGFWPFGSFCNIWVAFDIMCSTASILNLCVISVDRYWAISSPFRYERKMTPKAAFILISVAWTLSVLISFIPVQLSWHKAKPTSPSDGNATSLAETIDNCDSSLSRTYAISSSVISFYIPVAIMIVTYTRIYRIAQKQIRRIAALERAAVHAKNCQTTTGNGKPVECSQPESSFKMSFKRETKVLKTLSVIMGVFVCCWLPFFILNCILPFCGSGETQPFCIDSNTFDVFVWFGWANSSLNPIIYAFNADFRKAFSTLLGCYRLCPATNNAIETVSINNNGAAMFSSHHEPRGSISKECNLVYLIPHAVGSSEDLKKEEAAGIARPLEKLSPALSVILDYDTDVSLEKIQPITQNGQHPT
Sequence of Alpha1B adrenergic receptor (P35368 whole entry): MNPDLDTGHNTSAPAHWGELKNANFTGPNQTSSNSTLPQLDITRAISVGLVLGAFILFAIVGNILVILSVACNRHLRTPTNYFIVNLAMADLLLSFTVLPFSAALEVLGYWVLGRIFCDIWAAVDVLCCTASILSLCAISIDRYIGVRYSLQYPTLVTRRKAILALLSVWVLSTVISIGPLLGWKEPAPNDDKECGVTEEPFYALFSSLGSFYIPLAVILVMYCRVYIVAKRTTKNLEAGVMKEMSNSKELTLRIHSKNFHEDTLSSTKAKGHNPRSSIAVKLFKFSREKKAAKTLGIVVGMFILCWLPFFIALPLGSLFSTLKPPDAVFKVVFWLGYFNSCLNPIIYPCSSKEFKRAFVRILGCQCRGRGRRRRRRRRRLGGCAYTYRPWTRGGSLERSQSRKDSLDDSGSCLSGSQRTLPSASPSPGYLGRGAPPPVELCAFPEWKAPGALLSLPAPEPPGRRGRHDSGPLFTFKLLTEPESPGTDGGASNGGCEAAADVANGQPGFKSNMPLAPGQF
Sequence of dopamine D5 receptor (P21918 whole entry): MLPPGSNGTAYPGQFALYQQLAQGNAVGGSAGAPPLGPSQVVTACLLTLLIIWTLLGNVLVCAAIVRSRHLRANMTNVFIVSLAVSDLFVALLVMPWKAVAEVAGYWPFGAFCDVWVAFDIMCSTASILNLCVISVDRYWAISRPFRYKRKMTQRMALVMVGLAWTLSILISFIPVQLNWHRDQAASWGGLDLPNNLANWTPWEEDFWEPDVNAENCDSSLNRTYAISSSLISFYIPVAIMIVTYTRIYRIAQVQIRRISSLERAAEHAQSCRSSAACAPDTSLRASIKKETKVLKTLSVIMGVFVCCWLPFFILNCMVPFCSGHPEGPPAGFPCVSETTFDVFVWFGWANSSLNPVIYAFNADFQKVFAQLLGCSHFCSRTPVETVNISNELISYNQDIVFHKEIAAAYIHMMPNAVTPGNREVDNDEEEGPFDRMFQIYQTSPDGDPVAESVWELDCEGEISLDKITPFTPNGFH
Sequence of 5HT7 receptor (P34969 whole entry): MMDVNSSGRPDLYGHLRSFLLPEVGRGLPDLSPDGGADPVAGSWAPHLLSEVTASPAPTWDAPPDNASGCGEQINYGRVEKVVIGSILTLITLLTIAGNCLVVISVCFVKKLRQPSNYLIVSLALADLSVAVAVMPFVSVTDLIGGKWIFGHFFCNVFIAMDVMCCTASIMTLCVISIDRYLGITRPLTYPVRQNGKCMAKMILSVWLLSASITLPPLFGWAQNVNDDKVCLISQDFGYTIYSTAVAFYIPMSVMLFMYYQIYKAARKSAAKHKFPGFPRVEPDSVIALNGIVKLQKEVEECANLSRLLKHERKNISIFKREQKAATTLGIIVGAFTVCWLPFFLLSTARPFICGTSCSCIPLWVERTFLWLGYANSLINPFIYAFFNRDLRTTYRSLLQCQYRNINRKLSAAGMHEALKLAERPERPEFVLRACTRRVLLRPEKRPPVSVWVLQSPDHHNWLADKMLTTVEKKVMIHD
Sequence of 5HT3 receptor (P46098 24-478): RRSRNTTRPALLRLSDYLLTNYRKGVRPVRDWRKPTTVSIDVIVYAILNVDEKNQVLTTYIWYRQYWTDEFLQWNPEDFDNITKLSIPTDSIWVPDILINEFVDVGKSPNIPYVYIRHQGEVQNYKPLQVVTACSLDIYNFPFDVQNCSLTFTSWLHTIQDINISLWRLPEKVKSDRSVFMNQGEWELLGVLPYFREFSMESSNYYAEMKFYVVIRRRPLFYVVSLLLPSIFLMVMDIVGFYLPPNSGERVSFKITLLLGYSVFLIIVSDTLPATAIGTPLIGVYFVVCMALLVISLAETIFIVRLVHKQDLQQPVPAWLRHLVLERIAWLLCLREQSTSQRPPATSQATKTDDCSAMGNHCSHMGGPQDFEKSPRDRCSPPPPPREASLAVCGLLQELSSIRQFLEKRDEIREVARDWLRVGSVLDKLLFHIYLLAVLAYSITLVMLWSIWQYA

Ki D3 (dopamine D3 receptor) | Ki 5HT1e (5HT1e receptor) | Ki 5HT3 (5HT3 receptor) | Ki 5HT7 (5HT7 receptor) | Ki D2 (dopamine D2 receptor) | Ki Alpha1B [1] | Ki 5HT2b (5HT2b receptor) | Ki Alpha1A [2] | Ki 5HT6 (5HT6 receptor) | Ki D1 (dopamine D1 receptor) | Ki D5 (dopamine D5 receptor) | Ki (dopamine D1 receptor) [nM] | Compound | Ki (5HT2b receptor) [nM]
— | — | — | — | — | — | — | — | — | — | — |  | CC1Cc2ccccc2N1C(=O)CN1CCO[C@@H](COc2ccncc2)C1 (stereo partly shown) [Compound 68] | 
— | — | — | — | — | — | — | — | — | — | — |  | CC1Cc2ccccc2N1C(=O)CN1CCO[C@@H](COc2ccccn2)C1 (stereo partly shown) [Compound 69] | 
— | — | — | — | — | — |  | — | — |  | — | > 10000 | Cc1ccnc(OC[C@H]2CN(CC(=O)N3c4ccccc4CC3C)CCO2)c1 (stereo partly shown) [Compound 70] | 3460

The next lines start with the compound.

Compound | Ki D3 (dopamine D3 receptor) | Ki 5HT1e (5HT1e receptor) | Ki 5HT3 (5HT3 receptor) | Ki 5HT7 (5HT7 receptor) | Ki D2 (dopamine D2 receptor) | Ki Alpha1B [1] | Ki 5HT2b (5HT2b receptor) | Ki Alpha1A [2] | Ki 5HT6 (5HT6 receptor) | Ki D1 (dopamine D1 receptor) | Ki D5 (dopamine D5 receptor) | Ki (dopamine D1 receptor) [nM] | Ki (5HT2b receptor) [nM]
Cc1ncccc1OC[C@H]1CN(CC(=O)N2c3ccccc3C[C@H]2C)CCO1 [Compound 63] | — | — | — | — | — | — | — | — | — | — | — |  | 
CC1Cc2ccccc2N1C(=O)CN1CCO[C@H](COc2cccc(Cl)c2)C1 (stereo partly shown) [Compound 64] | — | — | — | — | — | — |  | — | — | — | — |  | 441
CC1Cc2ccccc2N1C(=O)CN1CCO[C@@H](COc2cccc(Cl)c2)C1 (stereo partly shown) [Compound 65] | — | — | — | — | — | — |  | — | — | — | — |  | 333
Cc1ccccc1OC[C@H]1CN(CC(=O)N2c3ccccc3CC2C)CCO1 (stereo partly shown) [Compound 66] | — | — | — | — | — | — |  | — | — | — | — |  | 770
C[C@@H]1Cc2ccccc2N1C(=O)CN1CCO[C@@H](COc2ccncc2)C1 [Compound 67] | — | — | — | — | — | — | — | — | — | — | — |  | 

— patent US9079895B2, “Morpholino compounds, uses and methods” (University of Dundee, priority 2012, dated 2015)
